Experimental data: patent publication US5468734A, “Prophylactic and remedial preparation for diseases attendant on hyperglycemia, and wholesome food” (Godo Shusei Co., Ltd., priority 1992, dated 1995)
Entries after “also recorded” stand apart in the source; their conditions may differ. Read-outs that look alike come from different tables or passages of the source.

What was measured:
[1] = test system: rise in blood sugar; test: Action to depress the rise in blood sugar after sucrose loading to mice; assay type: in vivo, ICR male mice; conditions: for Rise in blood sugar / action to depress the rise in blood sugar due to sucrose loading (in words): sucrose 1 g/kg; for Rise in blood sugar: average ± standard error; for action to depress the rise in blood sugar due to sucrose loading (in words): orally 25, 50 and 100 mg/kg (L-arabinose, D-xylose) or 100 mg/kg (others); for action to depress the rise in blood sugar for sucrose or starch loading (in words): summary statement
From the text: (Action to depress the rise in blood sugar after carbohydrate loading)
ICR male mice (weight 30-35 g) were used in proportions of 5 mice per group.
After causing the mice to fast, sucrose or starch was orally administered in a proportion of 1 g/kg to the mice of each group, and at the same time substances to be tested were orally given to mice of their corresponding groups.
Blood was collected from the retroorbital sinus of each mouse before carbohydrate loading and upon elapsed times of 30 minutes, 60 minutes and 120 minutes after the loading to determine the concentration of glucose in the blood plasma by the glucose oxidase method.

[2] = in vivo; cited from earlier work
[3] = test system: maltase (carbohydrase derived from rabbit small intestine mucous membrane); test: Action to inhibit the hydrolytic activity of homogenate prepared from rabbit small intestine mucous membrane: maltase inhibition; assay type: biochemical; conditions: for Maltase inhibition rate: substrate maltose 20 mM, pH 6.8, 37° C., 15 minutes
Method: (§1) (Action to inhibit the hydrolytic activity of homogenate prepared from rabbit small intestine mucous membrane to carbohydrate)
(§2) A native kind of white rabbits (weight: 3.0-3.5 kg) were sacrificed by exsanguination to take out their small intestines.
(§3) After freezing and thawing the small intestines thus taken out, they were homogenized in a 5 mM EDTA buffer (pH: 7.0) and subjected to centrifugation for 60 minutes at 60,000×g. Precipitate thus formed was collected and suspended again in a 10 mM potassium phosphate buffer (pH: 7.0), thereby obtaining a crude enzyme suspension.
(§4) Sucrose (20 mM) and maltose (20 mM) were used as substrates.
(§5) Each reaction mixture was formulated so as to contain 350 microliters of a 100 mM maleate buffer (pH: 6.8), 100 microliters of a substrate solution, 50 microliters of the crude enzyme suspension and 50 microliters of a test solution. Substances to be tested were separately dissolved in a maleate buffer (pH: 6.8) before use.
(§6) Respective reactions were conducted for 15 minutes at 37° C.

[4] = test system: rise in blood sugar; test: Action to depress the rise in blood sugar after starch loading to mice; assay type: in vivo, ICR male mice; conditions: starch 1 g/kg; for Rise in blood sugar: average ± standard error
[5] = assay type: in vivo, ICR male mice
From the text: (Action to depress increase in body weight of mice)
ICR male mice after the elapse of 5 weeks from their birth were used in proportions of 10 mice per group.
Mice of a control group were caused to freely ingest the same feed as those used in the run groups except that L-arabinose was not added.
The mice of each group were separately weighed after 10 days, 20 days, 30 days and 60 days from the beginning of the ingestion to determine their weight increases from the initial weights, thereby calculating an average value of the weights increased in each group. The amounts of the feeds and water ingested were also determined.

[6] = target: T1, sucrase (carbohydrase derived from rabbit small intestine mucous membrane) (Oryctolagus cuniculus, UniProt P07768); test: Action to inhibit the hydrolytic activity of homogenate prepared from rabbit small intestine mucous membrane: sucrase inhibition; assay type: biochemical; conditions: for inhibition at 500 µg/mL: 50 mg/dl; for inhibition at 1000 µg/mL: 100 mg/dl; for inhibition at 2000 µg/mL: 200 mg/dl
T1 construct: suspended again in a 10 mM potassium phosphate buffer (pH: 7.0), thereby obtaining a crude enzyme suspension; from tissue; host or cells: rabbit small intestine (title: mucous membrane), homogenate, 60,000×g precipitate
T1 sequence (P07768 1008-1827 limits assumed): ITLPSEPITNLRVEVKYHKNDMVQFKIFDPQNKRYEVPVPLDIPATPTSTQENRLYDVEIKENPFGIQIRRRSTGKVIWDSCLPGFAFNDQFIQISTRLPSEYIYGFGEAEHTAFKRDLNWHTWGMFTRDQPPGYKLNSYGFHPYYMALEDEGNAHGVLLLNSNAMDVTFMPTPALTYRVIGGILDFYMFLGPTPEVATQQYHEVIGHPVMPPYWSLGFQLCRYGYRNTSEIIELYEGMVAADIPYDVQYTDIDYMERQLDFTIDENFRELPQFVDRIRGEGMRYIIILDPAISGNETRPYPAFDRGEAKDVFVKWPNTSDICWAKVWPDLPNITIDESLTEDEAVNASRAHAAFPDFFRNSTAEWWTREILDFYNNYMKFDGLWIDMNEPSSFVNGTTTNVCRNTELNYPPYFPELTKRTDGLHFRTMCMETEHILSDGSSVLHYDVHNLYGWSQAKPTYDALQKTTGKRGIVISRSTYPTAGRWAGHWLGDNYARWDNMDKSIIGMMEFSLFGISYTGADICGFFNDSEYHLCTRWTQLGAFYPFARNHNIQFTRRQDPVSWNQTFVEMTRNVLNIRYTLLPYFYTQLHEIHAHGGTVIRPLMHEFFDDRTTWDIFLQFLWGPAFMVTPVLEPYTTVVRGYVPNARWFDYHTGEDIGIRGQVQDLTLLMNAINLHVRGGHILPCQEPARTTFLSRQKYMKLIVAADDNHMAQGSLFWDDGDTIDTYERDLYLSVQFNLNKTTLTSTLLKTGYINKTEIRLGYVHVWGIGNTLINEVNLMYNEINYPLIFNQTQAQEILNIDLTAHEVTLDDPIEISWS
T1 sequence (P07768 2-1007 partner limits assumed): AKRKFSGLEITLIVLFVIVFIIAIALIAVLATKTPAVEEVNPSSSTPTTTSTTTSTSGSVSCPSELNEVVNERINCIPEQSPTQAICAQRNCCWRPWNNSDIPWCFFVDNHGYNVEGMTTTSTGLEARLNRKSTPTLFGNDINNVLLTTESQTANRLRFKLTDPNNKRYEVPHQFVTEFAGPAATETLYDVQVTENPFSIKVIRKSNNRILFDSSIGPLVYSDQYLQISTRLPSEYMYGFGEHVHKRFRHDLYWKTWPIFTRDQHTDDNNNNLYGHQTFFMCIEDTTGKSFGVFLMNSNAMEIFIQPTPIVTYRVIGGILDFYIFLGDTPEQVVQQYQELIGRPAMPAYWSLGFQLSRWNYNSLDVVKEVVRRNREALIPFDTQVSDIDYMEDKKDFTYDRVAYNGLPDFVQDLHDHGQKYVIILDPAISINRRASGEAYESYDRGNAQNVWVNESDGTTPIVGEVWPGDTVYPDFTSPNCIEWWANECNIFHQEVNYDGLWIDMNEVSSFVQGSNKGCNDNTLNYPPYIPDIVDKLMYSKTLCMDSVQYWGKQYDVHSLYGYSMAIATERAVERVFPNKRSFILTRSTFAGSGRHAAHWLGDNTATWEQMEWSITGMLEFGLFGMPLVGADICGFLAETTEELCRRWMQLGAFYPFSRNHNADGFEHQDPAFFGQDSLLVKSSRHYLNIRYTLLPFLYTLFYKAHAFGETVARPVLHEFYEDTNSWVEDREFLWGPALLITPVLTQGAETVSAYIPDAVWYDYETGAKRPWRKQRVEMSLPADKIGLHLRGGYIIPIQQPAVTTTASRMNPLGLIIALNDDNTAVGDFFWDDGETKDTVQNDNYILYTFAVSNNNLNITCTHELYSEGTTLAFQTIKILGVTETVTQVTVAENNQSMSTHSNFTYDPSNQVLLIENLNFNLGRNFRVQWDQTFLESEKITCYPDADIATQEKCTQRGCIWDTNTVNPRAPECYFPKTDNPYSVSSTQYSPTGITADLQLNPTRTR
Method: as §1, §2, §3, §4, §5, §6

[7] = dose 25 mg/kg oral, after 30 min.
[8] = dose 25 mg/kg oral, after 60 min.
[9] = dose 50 mg/kg oral, after 30 min.
[10] = dose 50 mg/kg oral, after 60 min.
[11] = dose 100 mg/kg oral, after 30 min.
[12] = dose 100 mg/kg oral, after 60 min.
[13] = dose 100 mg/kg oral, after 120 min.
[14] = 0.5%, 1.0%, 2.0% in feed, during the experiment
[15] = 0.25 h, substrate sucrose 20 mM, pH 6.8, 37° C., 15 minutes, read-out: Sucrase inhibition rate

O=C[C@H](O)[C@@H](O)[C@@H](O)CO [L-Arabinose, L-arabinose]
Rise in blood sugar [1, 7]: 71.7 Δmg/dl | Rise in blood sugar [1, 8]: 49.4 Δmg/dl | Rise in blood sugar [1, 9]: 62.9 Δmg/dl | Rise in blood sugar [1, 10]: 37.3 Δmg/dl | Rise in blood sugar ([1]; dose 50 mg/kg oral, after 120 min.): 21.5 Δmg/dl | Rise in blood sugar [1, 11]: 41.8 Δmg/dl | Rise in blood sugar [1, 12]: 30.4 Δmg/dl | Rise in blood sugar [1, 13]: 20.3 Δmg/dl | action to depress the rise in blood sugar due to sucrose loading (in words) [1]: depressed in dependence on the dose | action to depress the rise in blood sugar for sucrose or starch loading (in words) [1]: remarkably effective in depressing the rise in blood sugar after carbohydrate loading; also recorded: effective action to depress the rise in blood sugar | uptake from the digestive tract [2]: hard to be taken up from the digestive tract | maltase-inhibiting action (in words) [3]: strong sucrase-inhibiting action and maltase-inhibiting action | Maltase inhibition rate ([3]; 25 mg/dl): 28.5% | Maltase inhibition rate ([3]; 50 mg/dl): 35.8% | Maltase inhibition rate ([3]; 100 mg/dl): 45.7% | Maltase inhibition rate ([3]; 200 mg/dl): 47.4% | depressing action on the rise in blood sugar due to starch loading (in words) [4]: depressing action on the rise in blood sugar due to starch loading in dependence on the dose | Rise in blood sugar [4, 7]: 91.1 Δmg/dl | Rise in blood sugar [4, 8]: 68.5 Δmg/dl | Rise in blood sugar ([4]; dose 25 mg/kg oral, after 120 min.): 29.8 Δmg/dl | Rise in blood sugar [4, 9]: 71.4 Δmg/dl | Rise in blood sugar [4, 10]: 54.6 Δmg/dl | Rise in blood sugar [4, 11]: 59.6 Δmg/dl | Rise in blood sugar [4, 12]: 48.3 Δmg/dl | Rise in blood sugar [4, 13]: 24.6 Δmg/dl | Weight increase ([5]; 0.5% in feed (Group 1 / A1), after 10 days): 5.9 g | Weight increase ([5]; 0.5% in feed (Group 1 / A1), after 20 days): 9.2 g | Weight increase ([5]; 0.5% in feed (Group 1 / A1), after 30 days): 12.4 g | Weight increase ([5]; 0.5% in feed (Group 1 / A1), after 60 days): 15.0 g | death [5, 14]: no death at all | general medical condition and behavior [5, 14]: no abnormality in general medical condition and behavior | weight increase compared with control group (in words) ([5]; 0.5%, 1.0%, 2.0% in feed, up to 60 days): less weight increases compared with the mice of the control group | Weight increase ([5]; 1.0% in feed (Group 2 / A2), after 10 days): 5.3 g | Weight increase ([5]; 1.0% in feed (Group 2 / A2), after 20 days): 8.0 g | Weight increase ([5]; 1.0% in feed (Group 2 / A2), after 30 days): 11.7 g | Weight increase ([5]; 1.0% in feed (Group 2 / A2), after 60 days): 13.8 g | Weight increase ([5]; 2.0% in feed (Group 3 / A3), after 10 days): 4.7 g | Weight increase ([5]; 2.0% in feed (Group 3 / A3), after 20 days): 7.2 g | Weight increase ([5]; 2.0% in feed (Group 3 / A3), after 30 days): 10.2 g | Weight increase ([5]; 2.0% in feed (Group 3 / A3), after 60 days): 12.1 g | sucrase-inhibiting action (in words) [6]: strong sucrase-inhibiting action | inhibition at 250 µg/mL ([6]; 0.25 h, 25 mg/dl, substrate sucrose 20 mM, pH 6.8, 37° C., 15 minutes, read-out: Sucrase inhibition rate): 25.3% | inhibition at 500 µg/mL [6, 15]: 37.8% | inhibition at 1000 µg/mL [6, 15]: 52% | inhibition at 2000 µg/mL [6, 15]: 66.3%

O=C[C@@H](O)[C@H](O)[C@@H](O)CO [L-Xylose, L-xylose]
Rise in blood sugar [1, 11]: 66.3 Δmg/dl | Rise in blood sugar [1, 12]: 53.2 Δmg/dl | action to depress the rise in blood sugar due to sucrose loading (in words) [1]: significantly depressed | action to depress the rise in blood sugar for sucrose or starch loading (in words) [1]: effective action to depress the rise in blood sugar | maltase-inhibiting action (in words) [3]: inhibiting actions second to these | Maltase inhibition rate ([3]; 200 mg/dl): 19.4% | sucrase-inhibiting action (in words) [6]: inhibiting actions second to these | inhibition at 500 µg/mL [6, 15]: 8% | inhibition at 1000 µg/mL [6, 15]: 11.9% | inhibition at 2000 µg/mL [6, 15]: 24.5%
